Reference: PubChem BioAssay (NCI)
“And” between values parts separate entries of the source, which are not always exact repeats. Equal entries are not always repeated.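 Cultured in 96-well plates, cells were exposed to test compound for 48 hours across five concentrations. GI50 is the concentration that inhibits growth by half. TGI is the concentration that stops growth completely.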

These compounds were tested on MOLT-4 leukemia (assay: NCI-60 cell line screen, 48 h).
`Cc1ccc(C2=C(c3ccccc3)C(Br)(c3ccc(C)cc3)C(c3ccccc3)=C2c2ccc(C)cc2)cc1` was tested, and the TGI was > 100 µM.
`N#CCN1C(=O)c2cccc3cc([N+](=O)[O-])cc(c23)C1=O` was tested, and the TGI was > 100 µM.
In the case of `O=C1CCN2C(=O)CCN12`, the TGI is reported as > 100 µM.
`Cc1cc(S(=O)(=O)Nc2nnc(-c3ccccc3)c(-c3ccccc3)n2)c(SCC(N)=O)cc1Cl` showed a GI50 of 24.4 µM and a TGI of 49.2 µM.
`CC1CC[C@]2(C(=O)O)CCC3(C)C(=CC(=O)C4[C@@]5(C)CCC(=O)C(C)(C)C5CC[C@]43C)[C@@H]2[C@H]1C` (stereo partly specified) was tested, and the TGI was 32.2 µM.
For `CC(C)C(Nc1c2ccccc2nc2ccccc12)C(=O)O` (stereo unspecified), the TGI was > 100 µM.
For `COc1ccccc1CCc1cc(OC)c(OC)c(OC)c1`, the TGI was 59.9 µM.
With `COc1cc2c(cc1OC)C(CC(=O)NN=C(C)C)NCC2` (stereo unspecified) the TGI was > 100 µM.
With `Cc1cccc(NC(=O)C(=O)C(C(=O)c2ccc3ccccc3c2)C2OC(=O)c3ccccc32)c1C` (stereo unspecified) the TGI was 32.2 µM.
In the case of `CS/C(N)=N\NC(=O)CCC(=O)Nc1ccccc1C(F)(F)F`, the TGI is reported as > 100 µM.
In the case of `CC(C)(C)c1ccc2c(c1)S(=O)(=O)Nc1ccccc1NS(=O)(=O)c1cc(C(C)(C)C)ccc1OCCOCCOCCO2`, the TGI is reported as > 100 µM.
With `COc1cc(/C=C/c2cc(/C=C/c3ccc(O)c(OC)c3)n(C(=O)Nc3ccc(F)c(Cl)c3)n2)ccc1O` the GI50 was 0.282 µM and the TGI was 1.4 µM.
For `CC(=O)[O-].CCN(CC)c1ccc(C=NCCN=Cc2ccc(N(CC)CC)cc2[O-])c([O-])c1.[Mn+3]`, the GI50 was 36.5 µM and the TGI was > 100 µM.
In the case of `Clc1ccc(C2=Nn3c(COc4ccccc4Cl)nnc3SC2)c(Cl)c1`, the GI50 is reported as 22.3 µM and the TGI is reported as > 100 µM.
`NC(N)=N/N=C(\c1nc2ccc([N+](=O)[O-])cc2[nH]c1=O)C(O)c1ccc([N+](=O)[O-])cc1` (stereo unspecified) was tested, and the TGI was > 100 µM.
`COc1cc2nc3cc([N+](=O)[O-])ccc3c(NCCCNCCO)c2cc1OC` gave a GI50 of 0.244 µM and a TGI of 5.4 µM.
`CCC[CH2][Sn]1([CH2]CCC)[O]CC(CN2CCCC2)[O]1` (stereo unspecified) gave a GI50 of 14.3 µM and a TGI of 50.4 µM.
Work on `CC1(C)C(=O)N(CCCCCCN2C(=O)C(C)(C)c3ccccc32)c2ccccc21` yielded a TGI of 60 µM.
In the case of `NCCCCN(CCCN)/[N+]([O-])=N\O`, the TGI is reported as > 100 µM.
Work on `CCOC(=O)c1c(C)n(Cc2ccc(Cl)cc2Cl)c2c1c(CN(C)C)c(O)c1[nH]cnc12` yielded a GI50 of 0.908 µM and a TGI of 4.52 µM.
For `CCOc1ccccc1NC(=O)CC(C(=O)OC)C(=O)C(=O)OC` (stereo unspecified), the TGI was > 100 µM.
With `COc1cccc2c1C(=O)c1c(O)c3c(c(O)c1C2=O)C[C@@](O)(C(C)=O)C[C@@H]3OC1OC(C)C(O)C(N)C1Br` (stereo partly specified) the TGI was 0.0266 µM.
In the case of `COC(=O)C1=C(C)N(NC(=O)OC(C)(C)C)C(=O)C1=P(c1ccccc1)(c1ccccc1)c1ccccc1`, the TGI is reported as > 100 µM.
In the case of `O=C1OC(c2ccccc2)=N/C1=C\c1cccc2ccccc12`, the TGI is reported as > 100 µM.
In the case of `Cc1cccc(NC(=O)/C(=N\NC(C)(C)C)C2NC(=S)NC2=O)c1C` (stereo unspecified), the TGI is reported as > 100 µM.
For `C[C@@H]1CC(=O)C2CCCC1C2=O` (stereo partly specified), the TGI was > 100 µM.
`COC1=C(C)C(=O)c2c(c(COC(N)=O)c3n2CC2C3N2C)C1=O` (stereo unspecified) showed a TGI of 0.104 µM.
In the case of `c1ccc(CNn2nnc3ccccc32)cc1`, the TGI is reported as > 100 µM.

What follows are compounds tested on NCI-H522 lung (assay: NCI-60 cell line screen, 48 h).
For `Cc1nc(N)sc1C(=O)/C=C\c1ccc2c(c1)OCO2`, the TGI was > 100 µM.
For `COc1cc(C(C)O)c[n+](CCc2c[nH]c3ccccc23)c1` (stereo unspecified), the TGI was > 100 µM.
With `CC1(C)SCc2nc3ncccc3n21` the TGI was > 100 µM.
For `Cn1c(=O)c(C(c2ccc([N+](=O)[O-])cc2)c2c(O)c3ccccc3n(C)c2=O)cc2ccccc21` (stereo unspecified), the TGI was > 100 µM.
With `Cc1cn(C2CC(O)C(CO)O2)c(=O)n2nnnc12` (stereo unspecified) the TGI was > 100 µM.
In the case of `COc1ccc(C(=O)C(C(=O)CCC(=O)Nc2cccc(Cl)c2)c2ccc(OC)cc2)cc1` (stereo unspecified), the TGI is reported as > 100 µM.
`CCOC(=O)C1=C(C)N(NC(=O)Nc2ccccc2)C(=O)C1=P(c1ccccc1)(c1ccccc1)c1ccccc1` was tested, and the TGI was 63.8 µM.
With `COc1cc(C=C2C(=O)NC(=O)NC2=O)cc(OC)c1OC` the TGI was > 100 µM.
With `Nn1c(=O)n(Cc2ccccc2)n(-c2ccccc2)c1=O` the TGI was > 100 µM.
`OC[C@H]1CCCC1O` (stereo partly specified) was tested, and the TGI was > 100 µM.
For `O=C1CCN2C(=O)CCN12`, the TGI was > 100 µM.
For `Cc1cc(S(=O)(=O)Nc2nnc(-c3ccccc3)c(-c3ccccc3)n2)c(SCC(N)=O)cc1Cl`, the GI50 was 22.9 µM and the TGI was 50.9 µM.
`CC1CC[C@]2(C(=O)O)CCC3(C)C(=CC(=O)C4[C@@]5(C)CCC(=O)C(C)(C)C5CC[C@]43C)[C@@H]2[C@H]1C` (stereo partly specified) was tested, and the TGI was 71.3 µM.
`CC(C)C(Nc1c2ccccc2nc2ccccc12)C(=O)O` (stereo unspecified) was tested, and the TGI was > 100 µM.
In the case of `COc1ccccc1CCc1cc(OC)c(OC)c(OC)c1`, the TGI is reported as > 100 µM.
`COc1cc2c(cc1OC)C(CC(=O)NN=C(C)C)NCC2` (stereo unspecified) was tested, and the TGI was > 100 µM.
For `Cc1cccc(NC(=O)C(=O)C(C(=O)c2ccc3ccccc3c2)C2OC(=O)c3ccccc32)c1C` (stereo unspecified), the TGI was 43.5 µM.
`CS/C(N)=N\NC(=O)CCC(=O)Nc1ccccc1C(F)(F)F` was tested, and the TGI was > 100 µM.
Work on `CC(=O)[O-].CCN(CC)c1ccc(C=NCCN=Cc2ccc(N(CC)CC)cc2[O-])c([O-])c1.[Mn+3]` yielded a GI50 of 43.3 µM and a TGI of 61.9 µM.
`Clc1ccc(C2=Nn3c(COc4ccccc4Cl)nnc3SC2)c(Cl)c1` was tested, and the GI50 was 22.6 µM and the TGI was 80.3 µM.
With `NC(N)=N/N=C(\c1nc2ccc([N+](=O)[O-])cc2[nH]c1=O)C(O)c1ccc([N+](=O)[O-])cc1` (stereo unspecified) the TGI was 89.6 µM.
`COc1cc2nc3cc([N+](=O)[O-])ccc3c(NCCCNCCO)c2cc1OC` showed a GI50 of 0.041 µM and a TGI of 0.213 µM.
`CCC[CH2][Sn]1([CH2]CCC)[O]CC(CN2CCCC2)[O]1` (stereo unspecified) showed a GI50 of 3.32 µM and a TGI of 11.1 µM.
In the case of `NCCCCN(CCCN)/[N+]([O-])=N\O`, the TGI is reported as > 100 µM.
`CCOC(=O)c1c(C)n(Cc2ccc(Cl)cc2Cl)c2c1c(CN(C)C)c(O)c1[nH]cnc12` was tested, and the GI50 was 17.1 µM and the TGI was 33.4 µM.
`CCOc1ccccc1NC(=O)CC(C(=O)OC)C(=O)C(=O)OC` (stereo unspecified) was tested, and the TGI was > 100 µM.
`COc1cccc2c1C(=O)c1c(O)c3c(c(O)c1C2=O)C[C@@](O)(C(C)=O)C[C@@H]3OC1OC(C)C(O)C(N)C1Br` (stereo partly specified) was tested, and the GI50 was 0.0563 µM and the TGI was 0.449 µM and 0.324 µM.
Compound `C[C@@]12CC=C3c4nc(Nc5cccc(O)c5)sc4CC[C@]3(C)[C@H]1CC[C@]1(C)C(=O)CC[C@@H]21` has a GI50 of 2.14 µM and a TGI of 4.64 µM.
For `COC(=O)C1=C(C)N(NC(=O)OC(C)(C)C)C(=O)C1=P(c1ccccc1)(c1ccccc1)c1ccccc1`, the TGI was > 100 µM.
With `O=C1OC(c2ccccc2)=N/C1=C\c1cccc2ccccc12` the TGI was > 100 µM.
`C[C@@H]1CC(=O)C2CCCC1C2=O` (stereo partly specified) was tested, and the TGI was > 100 µM.
`COC1=C(C)C(=O)c2c(c(COC(N)=O)c3n2CC2C3N2C)C1=O` (stereo unspecified) showed a TGI of 0.0304 µM.
`c1ccc(CNn2nnc3ccccc32)cc1` was tested, and the TGI was > 100 µM.

What follows are compounds tested on SK-OV-3 ovarian (assay: NCI-60 cell line screen, 48 h).
For `Cc1nc(N)sc1C(=O)/C=C\c1ccc2c(c1)OCO2`, the TGI was > 100 µM.
With `CC1(C)SCc2nc3ncccc3n21` the TGI was > 100 µM.
With `Cn1c(=O)c(C(c2ccc([N+](=O)[O-])cc2)c2c(O)c3ccccc3n(C)c2=O)cc2ccccc21` (stereo unspecified) the TGI was > 100 µM.
For `Cc1cn(C2CC(O)C(CO)O2)c(=O)n2nnnc12` (stereo unspecified), the TGI was > 100 µM.
For `COc1ccc(C(=O)C(C(=O)CCC(=O)Nc2cccc(Cl)c2)c2ccc(OC)cc2)cc1` (stereo unspecified), the TGI was > 100 µM.
`CCOC(=O)C1=C(C)N(NC(=O)Nc2ccccc2)C(=O)C1=P(c1ccccc1)(c1ccccc1)c1ccccc1` was tested, and the TGI was > 100 µM.
`COc1cc(C=C2C(=O)NC(=O)NC2=O)cc(OC)c1OC` was tested, and the TGI was > 100 µM.
`Nn1c(=O)n(Cc2ccccc2)n(-c2ccccc2)c1=O` was tested, and the TGI was > 100 µM.
For `NCC1Nc2ccccc2[C@@H](O)C1O` (stereo partly specified), the TGI was > 100 µM.
`Cc1cccc(N2CCN(C(=S)c3ccc4c(c3)OCO4)CC2)c1` gave a GI50 of 2.19 µM and a TGI of 83.3 µM.
`Cc1ccc(C2=C(c3ccccc3)C(Br)(c3ccc(C)cc3)C(c3ccccc3)=C2c2ccc(C)cc2)cc1` was tested, and the TGI was > 100 µM.
`N#CCN1C(=O)c2cccc3cc([N+](=O)[O-])cc(c23)C1=O` was tested, and the TGI was > 100 µM.
For `O=C1CCN2C(=O)CCN12`, the TGI was > 100 µM.
In the case of `Cc1cc(S(=O)(=O)Nc2nnc(-c3ccccc3)c(-c3ccccc3)n2)c(SCC(N)=O)cc1Cl`, the GI50 is reported as > 100 µM and the TGI is reported as > 100 µM.
`CC1CC[C@]2(C(=O)O)CCC3(C)C(=CC(=O)C4[C@@]5(C)CCC(=O)C(C)(C)C5CC[C@]43C)[C@@H]2[C@H]1C` (stereo partly specified) was tested, and the TGI was > 100 µM.
`CC(C)C(Nc1c2ccccc2nc2ccccc12)C(=O)O` (stereo unspecified) was tested, and the TGI was > 100 µM.
With `COc1cc2c(cc1OC)C(CC(=O)NN=C(C)C)NCC2` (stereo unspecified) the TGI was > 100 µM.
With `COC(=O)/C(=N\Nc1nnc(C)n1N)C(C#N)c1ccc(Cl)cc1` (stereo unspecified) the TGI was > 100 µM.
`Cc1cccc(NC(=O)C(=O)C(C(=O)c2ccc3ccccc3c2)C2OC(=O)c3ccccc32)c1C` (stereo unspecified) gave a TGI of 54.4 µM.
`CS/C(N)=N\NC(=O)CCC(=O)Nc1ccccc1C(F)(F)F` was tested, and the TGI was > 100 µM.
In the case of `CC(C)(C)c1ccc2c(c1)S(=O)(=O)Nc1ccccc1NS(=O)(=O)c1cc(C(C)(C)C)ccc1OCCOCCOCCO2`, the TGI is reported as > 100 µM.
Compound `COc1cc(/C=C/c2cc(/C=C/c3ccc(O)c(OC)c3)n(C(=O)Nc3ccc(F)c(Cl)c3)n2)ccc1O` has a GI50 of 0.324 µM and a TGI of 1.43 µM.
`Clc1ccc(C2=Nn3c(COc4ccccc4Cl)nnc3SC2)c(Cl)c1` showed a GI50 of 28.1 µM and a TGI of 86.3 µM.
`NC(N)=N/N=C(\c1nc2ccc([N+](=O)[O-])cc2[nH]c1=O)C(O)c1ccc([N+](=O)[O-])cc1` (stereo unspecified) was tested, and the TGI was > 100 µM.
For `COc1cc2nc3cc([N+](=O)[O-])ccc3c(NCCCNCCO)c2cc1OC`, the GI50 was 0.265 µM and the TGI was 0.711 µM.
